Like-named read-outs stand apart in the source and are kept apart here.
Tests used:
full-length HEV p6 clone = assay: Full-length p6 clone, ORF2 immunofluorescence in Huh7.5; assay type: cell-based, Hepatitis E virus; conditions: silvestrol 10 nM or RBV, 42 h, added 4 h after transfection
different HEV constructs = assay: Different HEV subgenomic replicons in Huh7.5; conditions: Hepatitis E virus
[1] = test system: HEV Sar55/S17 replicon (gt1); assay: HEV Sar55/S17 subgenomic replicon replication in Huh7.5
[2] = test system: HCV JFH1 subgenomic replicon; assay: HCV JFH1 subgenomic replicon replication in Huh7.5; conditions: for IC50 / IC90: Hepatitis C virus; for IC50: read-out: IC50 (CI); for IC90: read-out: IC90 (CI)
[3] = test system: HEVp6 replicon (Kernow-C1 p6, gt3); assay: HEVp6 subgenomic replicon; conditions: for IC90: read-out: IC90 (CI)
gt1 HEV (strain Sar-55) = assay type: in vivo; conditions: 0.3 mg/kg daily intraperitoneal, ten or six days, first days of treatment
[4] = 0.3 mg/kg daily intraperitoneal, monitored period
Huh7.5 cells [5] = assay: Trypan blue exclusion viable cell counting; assay type: cell-based, human; conditions: silvestrol 10 nM and 100 nM, 24 h, vs untreated cells
HepG2/C3A cells = assay: MTT cell viability in HEVCC infection assay; assay type: cell-based, human; conditions: silvestrol 10, 20, 50 nM, all treatment setups
[6] = test system: hepatocyte-like cells (HLCs); assay: WST cell viability in hepatocyte-like cells; assay type: cell-based, human; conditions: 10 nM silvestrol for 24 h
Ebola virus = conditions: read-out: IC50 Ebola virus replication; cited from earlier work
[7] = MTT cell viability assay in transfected Huh7.5; assay type: cell-based, human; conditions: human, transfected Huh7.5 cells, CC50 (CI), 42 h treatment, Huh7.5, CI 95%
Huh7.5 cells [8] = assay: MTT cell viability assay in transfected Huh7.5; assay type: cell-based, human
[9] = Hepatitis E virus, GT1, Huh7.5, 24 h, read-out: IC50 (CI), 24 h treatment, Huh7.5, CI 95%
[10] = Hepatitis E virus, GT1, Huh7.5, 42 h, read-out: IC50 (CI), 42 h treatment, Huh7.5, CI 95%
[11] = Hepatitis E virus, GT3, Huh7.5, 24 h, read-out: IC50 (CI), 24 h treatment, Huh7.5, CI 95%
[12] = Hepatitis E virus, GT3, Huh7.5, 24 h
[13] = Hepatitis E virus, GT3, Huh7.5, 42 h, read-out: IC50 (CI), 42 h treatment, Huh7.5, CI 95%
[14] = Hepatitis E virus, GT3, Huh7.5, 42 h

SMILES: NC(=O)c1ncn([C@@H]2O[C@H](CO)[C@@H](O)[C@H]2O)n1 [Ribavirin]
- ORF2 positive cells (immunofluorescence) (full-length HEV p6 clone): highly reduced
- IC50 (different HEV constructs; GT1, Huh7.5, 24 h, read-out: IC50 HEV replication): 8000 to 12000 nM
- IC50 [1, 9]: 43000 nM
- IC50 [1, 10]: 30300 nM
- IC50 ([1]; read-out: IC50 (CI), 24 h treatment, Huh7.5, CI 95%): 43100 nM
- IC50 ([2]; Huh7.5, 24 h): 12300 nM
- IC90 ([2]; Huh7.5, 24 h): 128000 nM
- IC50 ([2]; Huh7.5, 42 h): 62500 nM
- IC50 [3, 11]: 8160 nM
- IC90 [3, 12]: 244000 nM
- IC50 [3, 13]: 6900 nM
- IC90 [3, 14]: 50400 nM

SMILES: COC(=O)[C@H]1[C@@H](O)[C@@]2(O)c3c(OC)cc(O[C@@H]4O[C@@H]([C@H](O)CO)CO[C@H]4OC)cc3O[C@@]2(c2ccc(OC)cc2)[C@@H]1c1ccccc1 [Silvestrol, silvestrol]
- HEV RNA in the feces (gt1 HEV (strain Sar-55)): rapid decline
- body weight [4]: No changes
- ORF2 positive cells (immunofluorescence) (full-length HEV p6 clone): highly reduced
- viable cells (trypan blue cell counting) (Huh7.5 cells [5]): no significant reductions
- cell viability (MTT) (HepG2/C3A cells): not reduced
- cytotoxicity (WST assay) in HLCs [6]: without cytotoxicity
- IC50 (different HEV constructs; Huh7.5, 24 h, read-out: IC50 for the different HEV constructs): 4 to 6.6 nM
- IC50 (Ebola virus): < 1 nM
- IC50 [1, 9]: 6.65 nM
- IC50 [1, 10]: 3.17 nM
- IC90 ([1]; Hepatitis E virus, GT1, Huh7.5, 42 h, read-out: IC90 (CI)): 52.8 nM
- IC50 ([2]; Huh7.5, 24 h): 24.3 nM
- IC90 ([2]; Huh7.5, 24 h): 128 nM
- IC50 ([2]; Huh7.5, 42 h): 71.1 nM
- IC90 ([2]; Huh7.5, 42 h): 518 nM
- susceptibility of HCV reference replicon compared with HEV ([2]; Huh7.5, 24 h): less susceptible
- CC50 at 42 h [7]: 24.8 nM
- cytotoxic concentration 50 (CC50) (Huh7.5 cells [8]; 24 h treatment, Huh7.5): did not reach a cytotoxic concentration 50 (CC50)
- CC50 (Huh7.5 cells [8]; read-out: CC50 (CI), 42 h treatment, Huh7.5, CI 95%): 24.8 nM
- selectivity index ([3]; 42 h, p6 strain, CC50/IC50): about 8.6
- IC50 [3, 11]: 4.43 nM
- IC90 [3, 12]: 64.7 nM
- IC50 [3, 13]: 2.9 nM
- IC90 [3, 14]: 27.3 nM
- IC50 ([3]; read-out: IC50 (CI), 42 h treatment, Huh7.5, CI 95%): 2.87 nM

— paper PMC7113770 (Antiviral Research, 2018)
